Data on 2 compounds can be found in ChEMBL document CHEMBL1136107, “Improvement of therapeutic index of phosphodiesterase type IV inhibitors as anti-Asthmatics” (Bioorg Med Chem Lett, 2003).

Calls of active or inactive are those of the source.

For test [1], the system named is Cavia porcellus. The test is described as follows: Inhibition of bronchoconstriction in passively-sensitized guinea pig at 1 mg/kg iv dose 10 min prior to challenge. Conditions: Lung. It is filed as functional.
Test [2] relates to Cavia porcellus. Description: Eosinophil infiltration in passively-sensitized guinea pig at 30 mg/kg peroral dose 90 min prior to challenge. It is filed as functional. The conditions noted are these: route oral.
The next test relates to Mustela putorius furo. Description: Emetic effect in ferrets after peroral administration at 0.03 mg/kg (2/5). It is filed as functional, organism-based. Also noted: dose 0.03 mg/kg.

For the compound `COc1ccc(/C=N/NC(N)=O)cc1OC1CCCC1`, in the test on Cavia porcellus [1], the inhibition in vivo (commonly how much of the control response was suppressed) at 1 mg/kg amounted to 90.3%. Also, the inhibition in vivo at 30 mg/kg in the test with Cavia porcellus [2] came out at 63%.

Turning to `COc1ccc(C2CNC(=O)C2)cc1OC1CCCC1` (stereo not given) [ROLIPRAM], the Emesis result in the test with Mustela putorius furo is “Partially active”. Besides, the inhibition in vivo at 1 mg/kg in the test on Cavia porcellus [1] came to 95.4%. Further, the inhibition in vivo at 30 mg/kg with Cavia porcellus [2] worked out at 62%.
